47 molecules from patent US9326513B2, “Fungicidal compositions” (Syngenta Participations AG, priority 2011, dated 2016) can be followed below.

Common to all, as to format: in vivo
Conditions in all cases: foliar, compared to untreated control leaf disks, read-out: disease control

Assay [1] deals with Puccinia recondita f. sp. tritici. In words: Puccinia recondita f. sp. tritici / wheat / leaf disc curative (brown rust). The protocol:
Puccinia recondita f. sp. tritici/Wheat/Leaf Disc Curative (Brown Rust) Wheat leaf segments cv. Kanzler are placed on agar in multiwell plates (24-well format). The leaf segments are inoculated with a spore suspension of the fungus. Plates were stored in darkness at 19° C. and 75% rh. The formulated test compound diluted in water was applied 1 day after inoculation.

The test system is the same in assay [2]. In words: Puccinia recondita f. sp. tritici / wheat / leaf disc preventative (brown rust). From the text: Puccinia recondita f. sp. tritici/Wheat/Leaf Disc Preventative (Brown Rust) Wheat leaf segments cv. Kanzler were placed on agar in multiwell plates (24-well format) and sprayed with the formulated test compound diluted in water. The leaf disks were inoculated with a spore suspension of the fungus 1 day after application.

The subject of assay [3] is Blumeria graminis f. sp. tritici (Erysiphe graminis f. sp. tritici). The assay can be described thus: Blumeria graminis f. sp. tritici / wheat / leaf disc preventative (powdery mildew on wheat). As to the method:
Blumeria graminis f. sp. tritici (Erysiphe graminis f. sp. tritici)/Wheat/Leaf Disc Preventative (Powdery Mildew on Wheat)
Wheat leaf segments cv. Kanzler were placed on agar in a multiwell plate (24-well format) and sprayed with the formulated test compound diluted in water. The leaf disks were inoculated by shaking powdery mildew infected plants above the test plates 1 day after application. The inoculated leaf disks were incubated at 20° C. and 60% rh under a light regime of 24 h darkness followed by 12 h light/12 h darkness in a climate chamber and the activity of a compound was assessed as percent disease control compared to untreated when an appropriate level of disease damage appears on untreated check leaf segments (6-8 days after application).
The following compounds gave at 200 ppm give at least 50% disease control in this test when compared to untreated control leaf disks under the same conditions, which show extensive disease development: […]

The structures appear in SMILES notation. Bounds are passed on as bounds.

For `CCN(C)/C=N/c1cc(Br)c(OC(C)(C)c2ccccc2)nc1C` [Q.279], the pest or weed control at 200 ppm in assay [1] and in assay [2] was no less than 50% each time.

As to `CCN(C)/C=N/c1cc(Br)c(OC(C)C[Si](C)(C)C)nc1C` (centres unmarked) [Q.272], the pest or weed control at 200 ppm in assay [3] and in assay [2] was no less than 50% each time.

As for `CCN(C)/C=N/c1ccc(OC(C)c2cc(OC)cc(OC)c2)nc1C` (centres unmarked) [Q.373], the pest or weed control at 200 ppm in assay [3], in assay [1] and in assay [2] was no less than 50% throughout.

Turning to `CCN(C)/C=N/c1cc(Br)c(OCc2ccccc2C)nc1C1CC1` [Q.401], the pest or weed control at 200 ppm in assay [3], in assay [1] and in assay [2] was no less than 50% in each case.

For the molecule `CCN(C)/C=N/c1cc(Br)c(OC(C)c2ccccc2CCc2ccccc2)nc1C` (centres unmarked) [Q.314], the pest or weed control at 200 ppm in assay [2] is no less than 50%.

Take `CCCOc1nc(C)c(/N=C/N(C)CC)cc1Br` [Q.388]: the pest or weed control at 200 ppm in assay [3], in assay [1] and in assay [2] was no less than 50% each time.

As for `CCC(Oc1ccc(/N=C/N(C)CC)c(C)n1)c1ccccc1` (centres unmarked) [Q.347], the pest or weed control at 200 ppm in assay [3], in assay [1] and in assay [2] was no less than 50% in each case.

In the case of `CCC[Si](CCC)(CCC)c1cc(/N=C/N(C)CC)c(C)nc1OCc1ccccc1C` [Q.259], the pest or weed control at 200 ppm in assay [2] was no less than 50%.

Take `CCN(C)/C=N/c1ccc(OCc2cc(OC)cc(OC)c2)nc1C` [Q.372]: the pest or weed control at 200 ppm in assay [1] and in assay [2] was no less than 50% each time.

`CCN(C)/C=N/c1ccc(O[C@H]2CC[C@H](C(C)C)CC2)nc1C` [Q.182]: the pest or weed control at 200 ppm in assay [1] and in assay [2] was no less than 50% in each case.

As for `CCN(C)/C=N/c1cc(C(C)C)c(OC2CCC(C(C)C)CC2)nc1C` (centres unmarked) [Q.343], the pest or weed control at 200 ppm in assay [3] and in assay [2] was no less than 50% each time.

Consider `Cc1nc(OC(C)c2cc(F)cc(F)c2)c(Br)cc1/N=C/N1CC=CC1` (centres unmarked) [Q.194], for which the pest or weed control at 200 ppm in assay [1] and in assay [2] was no less than 50% throughout.

For the molecule `CCN(C)/C=N/c1cc(Br)c(OCc2snc(-c3ccccc3)c2C#N)nc1C` [Q.210], in assay [2], the pest or weed control at 200 ppm is no less than 50%.

Consider `CCN(C)/C=N/c1cc(Br)c(O)nc1C` [Q.379], for which, in assay [2], the pest or weed control at 200 ppm is no less than 50%.

For `CCN(C)/C=N/c1cc(Br)c(OCc2cc(-c3ccccc3)ns2)nc1C` [Q.107], the pest or weed control at 200 ppm in assay [2] was no less than 50%.

Turning to `Cc1nc(OCCCC(C)C)c(Br)cc1/N=C/NC(C)(C)C` [Q.009], the pest or weed control at 200 ppm in assay [2] was no less than 50%.

For `CCC(Oc1ccc(/N=C/N(C)C(C)C)c(C)n1)c1ccccc1` (centres unmarked) [Q.348], the pest or weed control at 200 ppm in assay [1] and in assay [2] was no less than 50% throughout.

`Cc1cc(C)cc(CC(C)Oc2ccc(/N=C/N(C)C(C)C)c(C)n2)c1` (centres unmarked) [Q.362]: the pest or weed control at 200 ppm in assay [1] and in assay [2] was no less than 50% in each case.

With `CCN(C)/C=N/c1cc(Br)c(OCCCC2CCCCC2)nc1C` [Q.017], the pest or weed control at 200 ppm in assay [3] and in assay [2] was no less than 50% throughout.

Turning to `CCCC(CCC)Oc1nc(C)c(/N=C/N(C)CC)cc1Br` [Q.150], the pest or weed control at 200 ppm in assay [2] was no less than 50%.

`CCN(C)/C=N/c1cc(Br)c(OC(C)c2ccccc2C#Cc2ccccc2)nc1C` (centres unmarked) [Q.313]: in assay [2], the pest or weed control at 200 ppm is no less than 50%.

For the molecule `CCN(C)/C=N/c1cc(Br)c(OCCOCOC)nc1C` [Q.061], in assay [2], the pest or weed control at 200 ppm is no less than 50%.

As for `CCN(C)/C=N/c1cc(Br)c(OC2CCNCC2)nc1C` [Q.159], the pest or weed control at 200 ppm in assay [1] and in assay [2] was no less than 50% throughout.

With `CCN(C)/C=N/c1cc(Br)c(OC(CC(C)C)CC(C)C)nc1C` [Q.234], the pest or weed control at 200 ppm in assay [2] was no less than 50%.

In the case of `Cc1nc(OCCCC(C)C)c(Br)cc1/N=C/NC(C)C` [Q.008], in assay [2], the pest or weed control at 200 ppm was no less than 50%.

As to `CCN(C)/C=N/c1cc(Br)c(O[C@H]2CC[C@H](C(C)C)CC2)nc1C` [Q.268], the pest or weed control at 200 ppm in assay [2] was no less than 50%.

Consider `CCN(C)/C=N/c1cc(-c2ccc(F)cc2)c(OC(C)c2cc(F)cc(F)c2)nc1C` (centres unmarked) [Q.264], for which the pest or weed control at 200 ppm in assay [2] is no less than 50%.

As for `CCN(C)/C=N/c1cc(Br)c(OC(C)c2cccc(C#Cc3ccccc3)c2)nc1C` (centres unmarked) [Q.312], the pest or weed control at 200 ppm in assay [3] and in assay [2] was no less than 50% in each case.

With `CCN(C)/C=N/c1cc(Br)c(OCCO)nc1C` [Q.056], the pest or weed control at 200 ppm in assay [2] was no less than 50%.

As for `CCN(C)/C=N/c1cc(Br)c(OCc2snc(-c3ccc(F)cc3)c2C#N)nc1C` [Q.157], the pest or weed control at 200 ppm in assay [2] is no less than 50%.

`CCN(C)/C=N/c1cc(Br)c(OCc2snc(-c3ccccc3)c2Br)nc1C` [Q.108]: the pest or weed control at 200 ppm in assay [3] and in assay [2] was no less than 50% throughout.

For `CCN(/C=N/c1cc(Br)c(OC(C)c2cc(F)cc(F)c2)nc1C)CC` (centres unmarked) [Q.187], the pest or weed control at 200 ppm in assay [3] and in assay [2] was no less than 50% in each case.

Regarding `CCN(C)/C=N/c1cc(Br)c(OC2C=C(C)CCC2)nc1C` (centres unmarked) [Q.173], in assay [2], the pest or weed control at 200 ppm was no less than 50%.

In the case of `CCN(C)/C=N/c1cc(Br)c(OC2CCCc3ccccc32)nc1C` (centres unmarked) [Q.138], in assay [2], the pest or weed control at 200 ppm was no less than 50%.

Take `CCN(C)/C=N/c1cc(Br)c(OC)nc1C` [Q.387]: the pest or weed control at 200 ppm in assay [2] is no less than 50%.

Turning to `CCN(C)/C=N/c1cc(Br)c(OC2CC(C)CCC2C(C)C)nc1C` (centres unmarked) [Q.083], the pest or weed control at 200 ppm in assay [2] is no less than 50%.

In the case of `CCN(C)/C=N/c1cc(-c2cccnc2)c(OC(C)c2cc(F)cc(F)c2)nc1C` (centres unmarked) [Q.266], the pest or weed control at 200 ppm in assay [2] is no less than 50%.

For the molecule `CCCc1ccc(-c2cc(/N=C/N(C)CC)c(C)nc2OC(C)c2cc(F)cc(F)c2)cc1` (centres unmarked) [Q.267], the pest or weed control at 200 ppm in assay [3] and in assay [2] was no less than 50% in each case.

In the case of `CCN(C)/C=N/c1cc(Br)c(OC2Cc3ccc(-c4ccccc4)cc3C2)nc1C` (centres unmarked) [Q.142], the pest or weed control at 200 ppm in assay [3] and in assay [2] was no less than 50% each time.

On to `CN/C=N/c1cc(Br)c(OCCCC(C)C)nc1C` [Q.003], for which the pest or weed control at 200 ppm in assay [2] was no less than 50%.

Consider `CCN(C)/C=N/c1cc([Si](C)(C)C)c(OCc2ccccc2C)nc1C` [Q.257], for which the pest or weed control at 200 ppm in assay [1] and in assay [2] was no less than 50% in each case.

Regarding `C#CCN(C)/C=N/c1cc(Br)c(OC(C)c2cc(F)cc(F)c2)nc1C` (centres unmarked) [Q.189], the pest or weed control at 200 ppm in assay [2] was no less than 50%.

For the molecule `CC#Cc1cc(/N=C/N(C)CC)c(C)nc1OC1CCC(C(C)C)CC1` (centres unmarked) [Q.254], the pest or weed control at 200 ppm in assay [1] and in assay [2] was no less than 50% throughout.

With `CCN(C)/C=N/c1cc(Br)c(OCc2ccc(Cl)cc2Cl)nc1C` [Q.096], the pest or weed control at 200 ppm in assay [1] and in assay [2] was no less than 50% throughout.

In the case of `C#CC(C)N(C)/C=N/c1cc(Br)c(OC(C)c2cc(F)cc(F)c2)nc1C` (centres unmarked) [Q.190], in assay [2], the pest or weed control at 200 ppm was no less than 50%.

With `CCN(C)/C=N/c1cc(Br)c(OCc2cccc(N)c2)nc1C` [Q.328], the pest or weed control at 200 ppm in assay [2] was no less than 50%.

For `CCN(C)/C=N/c1cc([Si](CC)(CC)CC)c(OCc2ccccc2C)nc1C` [Q.258], the pest or weed control at 200 ppm in assay [1] and in assay [2] was no less than 50% each time.
